Results published in patent US20180015144A1, “AGONISTS OF THE NOGO-A S1PR PATHWAY FOR THE TREATMENT OF GLIOBLASTOMA” (UNIVERSITAT ZURICH, priority 2015, published 2018).

Tests used:
[1] = tested on: GBM MVEC; assay: Mean traction forces of adhered cells on nanopillars coated with Nogo-A proteins; type: cell-based, human
Experimental: (§1) For time-lapse- and force generation experiments, Vybrant/Dil (Invitrogen, 1:200)-labeled GBM MVEC (10^4 cells ml^−1) were added onto the nanopillar structures. The imaging process was started 1 h after seeding GBM MVEC on nanopillars. To calculate the traction force exerted by GBM MVEC on the nanopillar surface, the deflection of the nanopillar tip was imaged with confocal microscopy using a Leica confocal microscope SP5 with a63x, oil immersion, NA1.43 objective.
(§2) During image acquisition, GBM MVEC were kept at 37° C. and 10% CO2. Following laser wavelengths were used to acquire images of nanopillar arrays and Di-labeled cells: 488 nm (nanopillar structures) and 546 nm (Dil).
To quantitatively address the effects of coated Nogo-A proteins on adhesion between endothelial cells (GBM MVEC) and nanopillars, nanopillars were coated with Nogo-A Delta 20, Nogo-A Delta 21, or Fibronectin (blank condition).
To calculate the total force applied by endothelial cells (GBM MVEC) on the substrates, the average displacement of 800-5000 nanopillars per single cell was used. Single GBM MVEC were imaged for a total time of 20 min, with a scanning ratio of 30 s per frame. For each condition, at least three individual GBM MVEC were analyzed.
To address the role of Nogo-A receptors, endothelial cells were pre-incubated for 30 min before seeding with the pharmacological blocker of S1PR2 (JTE-013, 10 μM) (Tocris Bioscience), with the pharmacological blocker of S1PR1 and S1PR3 (VPC 23019, 10 μM) (Tocris Bioscience), or with the pharmacological blocker of S1PR1, 3, 4, and 5 (FTY720, 10 μM) (Tocris Bioscience).
(§3) To quantitatively address the acute effects of soluble Nogo-A proteins on GBM MVEC retraction, Dil-labeled endothelial cells on nanopillars coated with 25 μg*ml^−1 human Fibronectin were treated 30 min after cell seeding with soluble Nogo-A Delta 20 and Nogo-A Delta 21 at 1 μM. Single GBM MVEC were then imaged for a total time of 1.5 h, with a scanning ratio of 30 s per frame. The nanopillar displacements were recorded as sequence images when the GBM MVEC applied forces on the nanopillar surface. For each condition, at least three individual GBM MVEC were analyzed. To address the role of Nogo-A receptors, endothelial cells were cultured for 30 min before incubating the cells for another 30 min with the pharmacological blocker of S1PR2 (JTE-013, 10 μM) (Tocris Bioscience), with the pharmacological blocker of S1PR1 and S1PR3 (VPC 23019, 10 μM) (Tocris Bioscience), or with the pharmacological blocker of S1PR1, 3, 4, and 5 (FTY720, 10 μM) (Tocris Bioscience). Then soluble Nogo-A Delta 20 (at 1 μM) or Nogo-A Delta 21 (at 1 μM) was added and lamellipodia and filopodia were imaged for 1h. The displacements (x) of the nanopillar tips induced by whole endothelial cells (for experiments with coated Nogo-A proteins) or by single endothelial filopodia (for experiments with soluble Nogo-A proteins) were measured using the program Diatrack (Powerful Particle Tracking, Semasopht). Finally, corresponding traction forces were calculated using the formula F=k*x, where k represents the spring constant of the nanopillars, 78.76 nN/μm.

[2] = tested on: GBM MVEC filopodia; assay: Peak traction forces of filopodia on nanopillars, soluble Nogo-A proteins; type: cell-based, human
Experimental: as §1, §2, §3

[3] = biological target: sphingosin-1 phosphate (S1P) receptor 2 (S1PR2) (human) (UniProt O95136); assay: cell-based or functional assay
[4] = tested on: GBM MVEC; assay: Time-lapse imaging of lamellipodia and filopodia retraction on nanopillars, soluble Nogo-A proteins; type: cell-based, human
Experimental: as §1, §2
To quantitatively address the acute effects of soluble Nogo-A proteins on GBM MVEC retraction, Dil-labeled endothelial cells on nanopillars coated with 25 μg*ml^−1 human Fibronectin were treated 30 min after cell seeding with soluble Nogo-A Delta 20 and Nogo-A Delta 21 at 1 μM. Single GBM MVEC were then imaged for a total time of 1.5 h, with a scanning ratio of 30 s per frame. The nanopillar displacements were recorded as sequence images when the GBM MVEC applied forces on the nanopillar surface. For each condition, at least three individual GBM MVEC were analyzed. […] Finally, corresponding traction forces were calculated using the formula F=k*x, where k represents the spring constant of the nanopillars, 78.76 nN/μm.

[5] = tested on: GBM MVECs; assay: Transwell migration assay (VEGF-A + fibronectin induced); type: cell-based, human; details: for migration potential despite Nogo-A Delta 20 exposure, blocker alone: pre-incubation with blocker 10 μM; for VEGF+FN-induced migration: protein coated on the underside of the insert, different concentrations
Experimental: For the migration assays, the undersides of 24-well plate inserts (FluoroBlock, BD Falcon) were coated with 0.5 ml PBS containing 10 μg*ml^−1 fibronectin (recombinant human fibronectin, Biopur AG) and different concentrations of Nogo-A Delta 21, Nogo-A Delta 20 and Nogo-66 (R&D Systems) and incubated for 1 h at 37° C. Endothelial cells (GBM MVECs) were starved in migration medium (DMEM+0.25% BSA) 4 h before detachment with accutase (PAA Laboratories). Cells were resuspended in migration medium (1 Mio ml^−1) and labeled with calcein AM (Molecular Probes, 4 μg ml^−1), followed by washing with HBSS and resuspending in migration medium (125,000 cells ml^−1). The coated inserts were washed and the bottom chamber was prepared by adding migration medium with or without human VEGF-A (PeproTech Inc., 10 ng ml^−1). The inserts were then put in an empty 24-well plate (BD Falcon) and calcein AM-labeled endothelial cells (50,000 cells per insert) were added.
The loaded inserts were transferred to the prepared cluster plate and incubated at 37° C., 5% CO2 for 4 h. A cell titration plate was prepared by adding different cell numbers (50,000/25,000/12,500/6,250/3,125/1,563/782 cells per well) in triplicates in 1.2 ml migration medium and incubated in parallel. The fluorescence was measured after 4 h by a cytofluorometer (Tean Infinite Pro 200) and the number of migrated cells was calculated based on the titration curve.
To ask how co-signaling of Nogo-A Delta 20/Nogo-66 coated to the underside of transwell inserts and of its receptors affect cell migration, calcein-AM labeled GBM MVECs were incubated for 1 h with the pharmacological blockers of-the Nogo-A Delta 20 receptor S1PR2 (JTE-013, 1 μM, 10 μM), with the pharmacological blocker of S1PR1 and S1PR3 (VPC 23019, 10 μM) (Tocris Bioscience), and with the competitive inhibitor of the Nogo-66 receptor NgR1 (NEP1-40, 4.6 μg/ml) during calcein-AM labeling. After washing, the cell medium was again supplied with these pharmacological blockers, prior to cell addition in the upper chamber of the transwell insert.

[6] = biological target: S1PR2 (Homo sapiens, UniProt O95136); details: cited from earlier work
[7] = tested on: other S1P receptors; details: cited from earlier work
[8] = tested on: VEGFR2; assay: VEGFR2 phosphorylation at Tyr1175 in HUVECs, immunofluorescent antibody staining; type: cell-based; details: protein 1 μM
Experimental: (§4) For the different treatment conditions HUVECs were seeded on 8 well dishes (LabTek chamber slides, immunofluorescence) or 6 well dishes (western blot) and left for 2 to 3 days until the culture was confluent. After a 4 h starvation of the cells in EBM-2 medium (Lonza, Switzerland), the cells were treated with Nogo-A Delta 20 (1 μM), Nogo-A Delta 20 (1 μM) and VEGF-A ([…]), Nogo-A Delta 21 (1 μM), Nogo-A Delta 21 (1 μM) and VEGF ([…]), or VEGF-A alone ([…]) in EBM-2 medium, respectively. The cells were either fixed in 4% formaldehyde for 15 min at room temperature or lysed in RIPA buffer. After fixation, HUVECs were stained with anti-phosphoVEGFR2 antibody (pTyr1175, #2478, Cell Signaling), F-actin (phalloidin Alexa Fluor 633, Molecular Probes) and DAPI. The same antibodies were used to detect VEGFR2 and phosphoVEGFR2 in western blot.

[9] = tested on: VEGFR2; assay: VEGFR2 phosphorylation at Tyr1175 and total VEGFR2 in HUVECs, western blot; type: cell-based; details: 15 min, protein 1 μM
Experimental: as §4

[10] = tested on: endothelial tip cells within the glioblastoma; assay: Injection by osmotic minipumps in a mouse model of glioblastoma, endothelial tip cell count; type: in vivo; details: 20 days post-injection, versus scrambled Nogo-A Delta 20
Text: Coronal brain sections (40 μm) of glioblastoma-bearing mice (20 days post-injection, 20D-PI) were perfused with FITC Lectin (green) to visualize perfused blood vessels and stained for Endomucin to visualize blood vessels including endothelial tip cells (red) and the general nuclear marker DAPI (blue). The boxed areas are enlarged in d-f and in g-i. (a-f). Endomucin^+ endothelial tip cells (red, arrows) and FITC Lectin^+ established blood vessel (green) (d-f) are shown within the glioblastoma. Endomucin seems to be specific for blood vessels within the glioblastoma (red) (as compared to Endomucin^− blood vessels in the surrounding normal brain; green). (d,f,g,i) Note the nicely visualized Endomucin^+ endothelial tip cells including filopodial protrusions (red, arrows) (g) within the glioblastoma. (j) Injection of Nogo-A Delta 20 decreases the mean number of endothelial tip cells within the glioblastoma, showing its inhibitory effect on mouse glioblastoma blood vessels.
GL261 glioma cell implantation into adult (two months old) C57BL/6 animals was performed as previously described (Aulwurm et al., Int J Cancer 2006;118, 1728-1735; Biollaz et al., Eur J Immunol 2009;39, 1323-1333j). Briefly, a total of 2×10^4 GL261 cells were inoculated through a borehole placed 1 mm lateral and 2 mm dorsal to the bregma at 3 mm depth using a Hamilton syringe. […]

[11] = pre-incubation with blocker 10 μM, Nogo-A Delta 20-coated nanopillars
[12] = pre-incubation with blocker 10 μM, Nogo-A Delta 20 1 μM

Chain of S1PR2 (O95136 whole entry): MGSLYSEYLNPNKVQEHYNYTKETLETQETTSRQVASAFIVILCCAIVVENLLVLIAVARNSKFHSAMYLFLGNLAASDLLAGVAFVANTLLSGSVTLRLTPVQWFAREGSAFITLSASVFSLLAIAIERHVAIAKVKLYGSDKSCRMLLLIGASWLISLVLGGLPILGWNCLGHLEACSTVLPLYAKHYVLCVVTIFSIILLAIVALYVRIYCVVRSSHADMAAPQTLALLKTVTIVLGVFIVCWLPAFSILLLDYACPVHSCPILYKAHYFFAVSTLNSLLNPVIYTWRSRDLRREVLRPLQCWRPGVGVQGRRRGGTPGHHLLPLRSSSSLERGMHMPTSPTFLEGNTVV
Chain of sphingosin-1 phosphate (S1P) receptor 2 (S1PR2) (human) (O95136 whole entry): as above

## CCCCCCCCc1ccc(CCC(N)(CO)CO)cc1 [FTY720]
[1]; [11]
  effect of blocker on mean traction forces induced by Nogo-A Delta 20 coating: did not decrease
[2]; [12]
  effect of blocker on average peak traction forces of Nogo-A Delta 20 treated filopodia: did also decrease

## Nogo-A Delta 20 (ligand)
[3]
  mean traction forces of GBM MVECs on Nogo-A Delta 20-coated nanopillars: 12 nN
  peak traction forces of GBM MVEC filopodia on nanopillars, soluble Nogo-A Delta 20 at 1 µM: 10 nN

## Cc1nn(C)c2nc(NNC(=O)Nc3cc(Cl)nc(Cl)c3)cc(C(C)C)c12 [JTE-013]
[4]; [12]
  effect of blocker on soluble Nogo-A Delta 20-induced retraction of lamellipodia and filopodia: counterbalanced
[1]; [11]
  mean traction forces induced by Nogo-A Delta 20 coating after blocker: ~4.1 nN
[2]; [12]
  average peak traction forces of Nogo-A Delta 20 treated filopodia after blocker: ~4.5 nN
[5]
  migration potential despite Nogo-A Delta 20 exposure, blocker alone: significantly increases

## Cc1cc(C(=O)Cn2cc(C#N)ccc2=O)c(C)n1Cc1ccccc1 [CYM-5520]
[6]
  selectivity for S1PR2: highly selective
[7]
  activation of other S1P receptors: do not activate

## CCCCCCCCc1cccc(NC(=O)[C@H](N)COP(=O)(O)O)c1 [VPC 23019]
[1]; [11]
  effect of blocker on mean traction forces induced by Nogo-A Delta 20 coating: did not decrease
[2]; [12]
  effect of blocker on average peak traction forces of Nogo-A Delta 20 treated filopodia: did also decrease
[5]; combined pre-incubation of VPC 23019 with JTE-013
  inhibitor effect of Nogo-A Delta 20 on migration, combined blockers: strong reduction of the inhibitor effect
[5]
  migration potential despite Nogo-A Delta 20 exposure, blocker alone: no effect on its own

## NEP1-40: competitive antagonist of Nogo-66, inhibitor of the Nogo-66 receptor NgR1 (RIYKGVIQAIQKSDEGHPFRAYLESEVAISEELVQKYSNS; UniProt Q9NQC3 1055-1094, looked up, fragment)
[5]; pre-incubation with NEP1-40
  migration potential upon exposure to Nogo-66 coating: significantly increases

## Cc1ccc(Sc2ccc(C3SCCS3)cc2[N+](=O)[O-])cc1 [XAX-162]
[6]
  selectivity for S1PR2: highly selective
[7]
  activation of other S1P receptors: do not activate

B1: Nogo-A Delta 20: Nogo-A specific inhibitory domain, 182 aa; human aa 567-748 (SEQ ID NO 002), rat aa 544-725 (SEQ ID NO 001) (protein, UniProt Q9NQC3 567-748, looked up, fragment)
chain: TGTKIAYETKMDLVQTSEVMQESLYPAAQLCPSFEESEATPSPVLPDIVMEAPLNSAVPSAGASVIQPSSSPLEASSVNYESIKHEPENPPPYEEAMSVSLKKVSGIKEEIKEPENINAALQETEAPYISIACDLIKETKLSAEPAPDFSDYSEMAKVEQPVPDHSELVEDSSPDSEPVDLF
[4]; soluble protein 1 μM, over 30 min to 1 h
  retraction of GBM MVEC lamellipodia and filopodia: retraction
[1]; protein coated on nanopillars
  mean traction forces and pillar displacements induced by adhered cells (change): reduced
  mean traction forces on the underlying nanopillars: ~12 nN
[2]; soluble protein 1 μM
  peak traction forces of filopodia on the underlying nanopillars: ~10 nN
[5]
  VEGF+FN-induced migration: dose-dependently inhibited
[8]; with VEGF-A for 30 min
  phosphoVEGFR2 after 30 min: no phosphoVEGFR2 was detectable
[8]; with VEGF-A, peak after 15 min
  VEGFR2 phosphorylation at Tyr1175 compared to Nogo-A Delta 21 conditions: considerably lower
[9]; with VEGF-A
  amount of phosphoVEGFR2 protein: reduced
  total amount of VEGFR2 protein: reduced
[9]; without VEGF-A
  VEGFR2 phosphorylation, protein alone: did not induce
[10]
  mean number of endothelial tip cells within the glioblastoma: decreases

B2: Nogo-66: inhibitory domain of Nogo, 66 aa; human aa 1055-1120 (SEQ ID NO 004), rat aa 1026-1091 (SEQ ID NO 003) (protein)
chain: RIYKGVIQAIQKSDEGHPFRAYLESEVAISEELVQKYSNSALGHVNCTIKELRRLFLVDDLVDSLK
[5]
  VEGF+FN-induced migration: dose-dependently inhibited
